Where two headings read alike, the source gives them in different places.
Key:
[1] = biological target: T1, human Orexin 1 receptor (Homo sapiens, UniProt O43613); test: Assay A: in vitro testing of OX1R potency, OX1R IP1; format: cell-based; details: Table 3, read-out: Assay A OX1R Kb [nM] (Orexin A concentration)
T1 construct: stably expressing the full-length human Orexin 1 receptor; expressed in transfected cells; host or cells: CHO-K1 (CHO-K1/hOx1)
T1 sequence (O43613 1-425): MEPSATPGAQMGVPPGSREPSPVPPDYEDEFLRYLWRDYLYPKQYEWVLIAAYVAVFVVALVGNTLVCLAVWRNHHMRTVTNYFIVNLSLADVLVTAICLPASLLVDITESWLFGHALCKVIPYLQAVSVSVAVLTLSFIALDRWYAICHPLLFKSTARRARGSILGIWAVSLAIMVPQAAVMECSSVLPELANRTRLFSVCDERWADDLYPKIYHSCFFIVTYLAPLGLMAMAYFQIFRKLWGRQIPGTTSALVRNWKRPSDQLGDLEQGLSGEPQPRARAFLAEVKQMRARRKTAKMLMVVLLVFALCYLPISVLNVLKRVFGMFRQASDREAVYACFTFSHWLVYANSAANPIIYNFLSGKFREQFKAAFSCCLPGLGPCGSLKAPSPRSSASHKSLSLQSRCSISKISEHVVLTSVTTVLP
Excerpt: Chem. Genomics 2009, 3, 22-32. […] AssayExplorer (Accelrys). […] Sci. 1993, 14(4), 110-112).

[2] = biological target: T2, OX2R (Homo sapiens, UniProt O43614); test: OX2R in vitro potency as reported in WO2016/034882; format: cell-based; details: Table 1 of WO2016/034882
T2 sequence (O43614 1-444): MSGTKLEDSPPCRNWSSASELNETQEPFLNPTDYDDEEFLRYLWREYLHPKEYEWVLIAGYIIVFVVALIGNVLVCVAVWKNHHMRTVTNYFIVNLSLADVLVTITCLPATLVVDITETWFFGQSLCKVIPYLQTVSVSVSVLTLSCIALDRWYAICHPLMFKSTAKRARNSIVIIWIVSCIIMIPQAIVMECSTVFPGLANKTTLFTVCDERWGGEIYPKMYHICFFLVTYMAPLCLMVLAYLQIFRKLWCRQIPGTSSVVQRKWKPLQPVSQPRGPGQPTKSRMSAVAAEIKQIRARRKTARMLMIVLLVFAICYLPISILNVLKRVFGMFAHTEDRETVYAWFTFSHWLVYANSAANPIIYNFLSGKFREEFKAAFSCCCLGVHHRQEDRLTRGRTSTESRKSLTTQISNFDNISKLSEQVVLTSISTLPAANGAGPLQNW

[3] = biological target: T2, OX2R; details: Table 3 of WO2016/034882, cited from earlier work
[4] = Assay C: metabolic stability in human liver microsomes (human MST); format: in vitro ADME; details: for half-life at 1 μM: pH 7.6, pooled human liver microsomes, 1 μM test compound, 37° C., read-out: Assay C: Human MST t1/2; for stability in human liver microsomes compared with closest prior art compounds in WO2016/034882 (in words): versus closest prior art examples of WO2016/034882
Protocol: C. Assessment of Metabolic Stability in Human Liver Microsomes (Human MST) The metabolic stability of the compounds according to the invention may be investigated as follows: The metabolic degradation of the test compound is assayed at 37° C. with pooled human liver microsomes. The final incubation volume of 100 μL per time point contains TRIS buffer pH 7.6 at room temperature (0.1 M), MgCl2 (5 mM), microsomal protein (1 mg/mL) and the test compound at a final concentration of 1 μM. Following a short pre-incubation period at 37° C., the reactions are initiated by addition of beta-nicotinamide adenine dinucleotide phosphate, reduced form (NADPH, 1 mM), and terminated by transferring an aliquot into solvent after different time points. After centrifugation (10000 g, 5 min), an aliquot of the supernatant is assayed by LC-MS/MS for the amount of parent compound. The half-life (t1/2) is determined by the slope of the semi-logarithmic plot of the concentration-time profile.

Row | SMILES | Kb ([1]; 0.5 nM Orexin A) [nM] | OX2R IC50/OX1R IC50 [2] | OX2R pIC50 [3] | IC50 ([3]; read-out: OX2R IC50 (corresponds to pIC50) (converted)) [nM] | Kb ([1]; 50 nM Orexin A) [nM] | half-life at 1 μM [4] [h] | stability in human liver microsomes compared with closest prior art compounds in WO2016/034882 (in words) [4]
1 | CC[C@@H](CNc1cnc(C(F)(F)F)cn1)N(C)C(=O)c1cc(Cl)ccc1-n1nccn1 [Ex 40 in WO2016/ 034882, reference compound] | 0.73 | Table 1: 156 |  |  |  |  | 
2 | CC[C@@H](CNc1cnc(C(F)(F)F)cn1)N(CC)C(=O)c1nc(C)ccc1-n1nccn1 [Ex 70 in WO2016/ 034882] |  |  | 5.3 | > 5000 | 0.14 | 0.333 | 
3 | CCN(C(=O)c1ccccc1-n1nccn1)[C@@H](C)COc1cnc(C(F)(F)F)cn1 [Example 1] | 0.97 |  |  |  |  | > 2.17 | 
4 | CCN(C(=O)c1ccc(F)cc1-n1nccn1)[C@@H](C)COc1cnc(C(F)(F)F)cn1 [Example 2] | 4.5 |  |  |  |  | > 2.17 | 
5 | CCN(C(=O)c1cc(F)ccc1-n1nccn1)[C@@H](C)COc1cnc(C(F)(F)F)cn1 [Example 3] | 2.1 |  |  |  |  | > 2.17 | 
6 | CCN(C(=O)c1cc(F)c(F)cc1-n1nccn1)[C@@H](C)COc1cnc(C(F)(F)F)cn1 [Example 4] | 5.5 |  |  |  |  | > 2.17 | 
7 | CCN(C(=O)c1cc(F)cc(F)c1-n1nccn1)[C@@H](C)COc1cnc(C(F)(F)F)cn1 [Example 6] | 3 |  |  |  |  | > 2.17 | 
8 | CCN(C(=O)c1cc(C(F)(F)F)ccc1-n1nccn1)[C@@H](C)COc1cnc(C(F)(F)F)cn1 [Example 7] | 13 |  |  |  |  | > 2.17 | 
9 | CCN(C(=O)c1cc(OC)ccc1-n1nccn1)[C@@H](C)COc1cnc(C(F)(F)F)cn1 [Example 8] |  |  |  |  | 0.8 | 1.22 | 
10 | CCN(C(=O)c1ccccc1-n1cccn1)[C@@H](C)COc1cnc(C(F)(F)F)cn1 [Example 9] | 5.4 |  |  |  |  | 0.417 | 
11 | CCN(C(=O)c1ccc(C)cc1-n1nccn1)[C@@H](C)COc1cnc(C(F)(F)F)cn1 [Example 10] |  |  |  |  | 0.44 | 1.33 | markedly improved stability
12 | CCN(C(=O)c1cccc(F)c1-c1nnc(C)o1)[C@@H](C)COc1cnc(C(F)(F)F)cn1 [Example 12] | 12 |  |  |  |  | > 2.17 | 
13 | CCN(C(=O)c1ccc(C)cc1-c1nnc(C)o1)[C@@H](C)COc1cnc(C(F)(F)F)cn1 [Example 14] | 4.6 |  |  |  |  | 1.48 | 
14 | CCN(C(=O)c1cccc(C)c1-c1nnc(C)o1)[C@@H](C)COc1cnc(C(F)(F)F)cn1 [Example 15] | 1.3 |  |  |  | 2.3 | 1.52 | 
15 | CCN(C(=O)c1ccc(OC)cc1-n1nccn1)[C@@H](C)COc1cnc(C(F)(F)F)cn1 [Example 18] | 1.7 |  |  |  | 1.8 | 1.18 | 
16 | CCN(C(=O)c1cccc(F)c1-n1nccn1)[C@@H](C)COc1cnc(C(F)(F)F)cn1 [Example 22] | 2.1 |  |  |  | 2.1 | > 2.17 | 
17 | CCN(C(=O)c1ccc(Cl)cc1-n1nccn1)[C@@H](C)COc1cnc(C(F)(F)F)cn1 [Example 24] | 1.1 |  |  |  | 1 | 1.52 | 
18 | CCN(C(=O)c1ccc(C(F)(F)F)cc1-n1nccn1)[C@@H](C)COc1cnc(C(F)(F)F)cn1 [Example 25] | 12 |  |  |  |  | 0.383 | 
19 | CCN(C(=O)c1ccc(F)cc1-c1ncccn1)[C@@H](C)COc1cnc(C(F)(F)F)cn1 [Example 27] | 1 |  |  |  |  | > 2.17 | markedly improved stability
20 | CCN(C(=O)c1ccccc1-c1nc(C)no1)[C@@H](C)COc1cnc(C(F)(F)F)cn1 [Example 28] | 3.9 |  |  |  |  | 0.65 | 
21 | CCN(C(=O)c1cccc(F)c1-c1ncccn1)[C@@H](C)COc1cnc(C(F)(F)F)cn1 [Example 29] | 0.64 |  |  |  | 0.51 | > 2.17 | markedly improved stability
22 | CCN(C(=O)c1ccccc1-c1ncccn1)[C@@H](C)COc1cnc(C(F)(F)F)cn1 [Example 30] | 0.55 |  |  |  | 0.63 | > 2.17 | markedly improved stability
23 | CCN(C(=O)c1ccccc1-c1noc(C)n1)[C@@H](C)COc1cnc(C(F)(F)F)cn1 [Example 32] | 2.1 |  |  |  |  | 1.1 | 
24 | CCN(C(=O)c1ccc(F)c(F)c1-n1nccn1)[C@@H](C)COc1cnc(C(F)(F)F)cn1 [Example 33] | 2.5 |  |  |  |  | > 2.17 | 
